Read-outs that look alike come from different tables or passages of the source.
How the values were obtained:
[1] = system: CCRF-CEM cells; test: cells; format: cell-based, human; conditions: read-out: EC50, growth inhibition
Description: Inhibition of growth of human cell lines in vitro. Inhibition of growth of CCRF-CEM in continuous and intermittent drug exposures was measured. EC50 values were determined from plots of percent control growth versus the logarithm of drug concentration.
[…]; n=2). […]; n=2). Values presented are average±S.D. for n>2 and average±range for n=2. […] […]; EC50 data may therefore underestimate the biological potency.

[2] = biological target: T1, es (or ENT1) facilitated diffusion nucleoside transport system (Homo sapiens, UniProt Q99808); test: Inhibition of Z potentiation of [3H]MTX uptake by es nucleoside transporter inhibitors; format: cell-based; conditions: [Z] 500 μM, HBSS
T1 construct: this is the only nucleoside transporter present in CCRF-CEM cells; endogenous in cells; host or cells: CCRF-CEM (parental), in HBSS
T1 sequence (Q99808 1-456): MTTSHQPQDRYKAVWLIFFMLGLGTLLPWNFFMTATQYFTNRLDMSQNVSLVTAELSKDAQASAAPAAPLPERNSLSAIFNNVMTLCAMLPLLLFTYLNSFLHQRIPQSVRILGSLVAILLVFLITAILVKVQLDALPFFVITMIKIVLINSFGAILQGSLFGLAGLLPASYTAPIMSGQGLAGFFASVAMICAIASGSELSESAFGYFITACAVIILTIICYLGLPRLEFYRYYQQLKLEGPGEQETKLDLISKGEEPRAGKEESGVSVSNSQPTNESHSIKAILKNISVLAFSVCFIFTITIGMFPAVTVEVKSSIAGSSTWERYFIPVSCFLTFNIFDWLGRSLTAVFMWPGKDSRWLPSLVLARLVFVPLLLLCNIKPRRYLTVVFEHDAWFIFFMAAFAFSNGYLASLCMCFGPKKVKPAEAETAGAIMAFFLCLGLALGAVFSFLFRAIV

[3] = system: araC 8C subline of CCRF-CEM; test: [3H]MTX uptake in es-deficient araC 8C subline; format: cell-based, human; conditions: 30 min time course ±Z
Description: Z potentiation was evaluated: (1) in a subline of CCRF-CEM (araC 8C) deficient in the es (or ENT1) facilitated diffusion nucleoside transport system (this is the only nucleoside transporter present in CCRF-CEM cells); and (2) in the presence of specific inhibitors of the es nucleoside transporter. […] Note that potentiation by Z is large in these studies because they were performed in HBSS to avoid binding of inhibitors by serum proteins and Z potentiation is higher in HBSS than in RPMI1640. […] Concentration-dependence studies are proposed to quantitate the potency of each inhibitor (IC50).

[4] = human, in vivo; cited from earlier work
[5] = system: CCRF-CEM cells; test: Protein-bound intracellular [3H]MTX; format: cell-based, human
Description: The cell pellet was frozen immediately at less than or equal to −80 degrees C. To process, 1 ml iced lysis buffer was added to the pellet immediately after removal from the freezer and the pellet was dispersed with a pasteur pipette. Freshly made lysis buffer contained (final concentrations): 50 mM citric-citrate, pH 6.0, 50 mM 2-mercaptoethanol, 50 μM NADPH (in 25 mM Tris, pH7.5), and 2 mg/ml bovine serum albumin. The sample was freeze-thawed once in dry ice-methanol, centrifuged at 1860×g for 10 min to remove debris and then further clarified by centrifugation through an Amicon MPS-1 filter unit. A 5 ml centrifugal column was prepared at 4 degrees C. in a 5 ml plastic syringe plugged with a porous plastic frit overlaid with a GF/C glass fiber filter cut with a #8 cork borer, then packed with Sephadex G-25 (Medium) in 50 mM citric-citrate, pH 6.0 to the 5 ml line, and centrifuged 5 min at 1000×g (0°) to expel liquid. The clarified supernatant (0.5 ml) was applied to the top of the column, the column was re-centrifuged at 1000×g (5 min) and the pass-through was collected in a 7 ml scintillation vial. After addition of scintillation fluid (5.5 ml), the sample was quantitated by liquid scintillation counting.

[6] = system: CCRF-CEM cells; test: Subcellular localization of [3H]MTX; format: cell-based, human
Description: Subcellular fractionation. […] Cells were diluted 9-fold in iced 0.9% NaCl, centrifuged at 1000×g for 5 min and washed once with 40 ml iced saline. All subsequent steps were performed at 4°. Cells were homogenized as previously described, except that hypotonic buffer at 20-fold the packed cell volume was used, and the homogenate was centrifuged for 6 min at 1000×g to yield a nuclear pellet (also containing unlysed cells and large debris) and a post-nuclear supernatant (PNS). Based on controls using nonradiolabeled cells, >91% of the cells would be lysed during homogenization. The PNS was centrifuged at 17,000×g to yield a combined mitochondria-lysosome pellet. The resulting supernatant was centrifuged at 100,000×g for 60 min to yield the 100,000×g supernatant (cytosol). The 100,000×g pellet (microsomes) and the combined mitochondria-lysosome pellet were each washed in isotonic buffer and centrifuged at their respective g-forces. All pellets were solubilized in 0.3% Triton X-100 by incubating at 37° for 1 hr; 1 ml was transferred to a scintillation vial for quantitation. Triton X-100 was added to the cytosol to a final concentration of 0.3% and a 1 ml aliquot was quantitated. Radioactivity in each fraction was corrected for a blank containing 0.3% Triton X-100.

| Compound | EC50 ([1]; 0-24/120 hr exposure) [µM] | EC50 ([1]; 120 hr exposure) [µM] | Rel Corrected 30 min accumulation (relative to +Z, no inhibitor) [2] | Relative Corrected vi (relative to +Z, no inhibitor) [2] | Accumulation at 30 min ([2]; no inhibitor) [pmol] | Corrected 30 min accumulation (accum +Z minus accum −Z with same inhibitor) ([2]; no inhibitor) | Corrected vi (rate +Z minus rate −Z with same inhibitor) ([2]; no inhibitor) | vi ([2]; no inhibitor) [pmol/min] | Potentiation of [3H]MTX uptake in araC 8C subline [3] | Toxicity in clinical trials [4] | Protein-bound MTX level at 30 min ([5]; absence of Z) [pmol/10^7 cells] | Protein-bound MTX level at 30 min ([5]; presence of 0.5 mM Z) [pmol/10^7 cells] | Cytosol material that is MTX or metabolites (HPLC) [6] [%] | Radioactivity that is cytosolic, post-nuclear supernatant only ([6]; nuclear pellet excluded) [%] | Total recovered radioactivity in the cytosolic fraction ([6]; ±Z) |
| --- | --- | --- | --- | --- | --- | --- | --- | --- | --- | --- | --- | --- | --- | --- | --- |
| NC(=O)c1ncn([C@@H]2O[C@H](CO)[C@@H](O)[C@H]2O)c1N [Z, 5-amino-4-imidazolecarboxamide riboside] | 410 ± 50 | 130 ± 20 | 1 | 1 | 108.3 | 91.3 | 4.25 | 5.65 | no potentiation | nontoxic | – | – | – | – | – |
| CN(Cc1cnc2nc(N)nc(N)c2n1)c1ccc(C(=O)N[C@@H](CCC(=O)O)C(=O)O)cc1 [MTX, 4-amino-10-methylpteroylglutamic acid] | – | – | – | – | – | – | – | – | – | – | 6.4±0.1 | 5.4±0.4 | > 90 | > 98 | More than 91% |

— patent US7687473B2, “5-amino-4-imidazolecarboxamide riboside and its nucleobase as potentiators of antifolate transport and metabolism” (Health Research, Inc., priority 2005, dated 2010)
